The conditions of the data set: 293.15 K; 101.33 kPa; Liquid; Vibrating tube method.

Data on one compound can be found in the NIST ThermoML archive (doi:10.1016/j.fluid.2010.01.026).

Numbers after ± are expanded uncertainties.

Turning to `CCCCCCCC[n+]1ccn(C)c1.F[P-](F)(F)(F)(F)F` [1-octyl-3-methylimidazolium hexafluorophosphate], the mass density turned out to be 1234.55 ± 8.3 kg/m3.
